What was measured:
[1] = refractive index (Na D-line) (dimensionless); conditions: 100 kPa, Liquid, Standard Abbe refractometry
[2] = relative permittivity at various frequencies (dimensionless); conditions: 100 kPa, Liquid, Frequency=2 MHz, Parallel plate capacitor

CCc1cccs1 [2-ethylthiophene]
Conditions | refractive index, [1] | relative permittivity, [2]
278.15 K | – | 2.968
280.65 K | – | 2.959
283.15 K | 1.51841 | 2.946
285.65 K | 1.51699 | 2.936
288.15 K | 1.51557 | 2.929
290.65 K | 1.51417 | 2.916
293.15 K | 1.51272 | 2.911
295.65 K | 1.51125 | 2.9
298.15 K | 1.50981 | 2.887
300.65 K | 1.50841 | 2.878
303.15 K | 1.50698 | 2.871
305.65 K | 1.50556 | 2.858
308.15 K | 1.50413 | 2.848
310.65 K | 1.50269 | 2.838
313.15 K | 1.50125 | 2.833
315.65 K | 1.49981 | 2.82
318.15 K | 1.49836 | 2.81
320.65 K | 1.49695 | 2.799
323.15 K | 1.4955 | 2.792
325.65 K | 1.49405 | 2.782
328.15 K | 1.49261 | 2.775
330.65 K | 1.49116 | 2.766
333.15 K | 1.48973 | 2.753
335.65 K | 1.48827 | 2.745
338.15 K | 1.48684 | 2.734

CCc1ccco1 [2-ethylfuran]
Conditions | refractive index, [1] | relative permittivity, [2]
278.15 K | – | 2.837
280.65 K | – | 2.823
283.15 K | 1.44533 | 2.813
285.65 K | 1.4439 | 2.798
288.15 K | 1.44245 | 2.784
290.65 K | 1.44101 | 2.766
293.15 K | 1.43956 | 2.756
295.65 K | 1.43817 | 2.739
298.15 K | 1.43672 | 2.725
300.65 K | 1.43531 | 2.709
303.15 K | 1.43387 | 2.699
305.65 K | 1.43244 | 2.682
308.15 K | 1.431 | 2.668
310.65 K | 1.42958 | 2.657
313.15 K | 1.42814 | 2.643
315.65 K | 1.42671 | 2.626
318.15 K | 1.42528 | 2.611
320.65 K | 1.42385 | 2.601
323.15 K | 1.42241 | 2.583
325.65 K | 1.42097 | 2.573
328.15 K | 1.41953 | 2.559
330.65 K | 1.4181 | 2.544
333.15 K | 1.41669 | 2.527
335.65 K | 1.41523 | 2.516
338.15 K | 1.41379 | 2.503

Source: the NIST ThermoML archive (doi:10.1021/acs.jced.8b00153)
